Where “and” joins values, the source holds several entries; their conditions need not be identical. Identical values can stand only once.
How the values were obtained:
[1] = target: T1, AChE (electric eel) (Electrophorus electricus, UniProt O42275); assay: biochemical; type: biochemical; conditions: for IC50: electric eel AChE, mean ± SEM of three experiments
T1 construct: purchased Sigma-Aldrich
Method: (§1) AChE, BuChE, 5,5'-dithiobis (2-nitrobenzoic acid) (DTNB), acetyl- and butyrylthiocholine iodides were purchased from Sigma-Aldrich. Five different concentrations of the corresponding compounds in ethanol-DMSO (9:1) were prepared. […] After 3 min of incubation, the substrate solution (acetylthiocholine iodide or butyrylthiocholine iodide, 0.05 M) was added and then incubated for at least 1 min at 25°C. […] The inhibition curve was obtained by plotting the percentage of enzyme activity (100% for the reference) versus the logarithm of the tested compound concentration. […]

[2] = target: T2, BuChE (equine serum) (Equus caballus, UniProt P81908); assay: biochemical; type: biochemical; conditions: for IC50: equine serum BuChE, mean ± SEM of three experiments
T2 construct: purchased Sigma-Aldrich
Method: as §1

[3] = tested on: PC12 cells; assay: Neuroprotection against H2O2-induced cell death in PC12 cells (MTT); type: cell-based; conditions: H2O2 (150 μM)-induced injury, mean ± SEM
Method: The cell viability was measured using MTT [3-(4,5-dimethylthiazol-2-yl)-2,5-diphenyl tetrazolium bromide] assay ([Datki et al., 2003]). PC12 cells (from the Iranian Biological Resource Center, IBRC) received different treatments, including no treatment (control), 150 μM H2O2 alone, or 150 μM H2O2 in combination with 0.1–50 μM of the tested compound. The cells were seeded at 1 × 10^4 cells/well and incubated at 37 °C under a 5% CO2 atmosphere for 24 h, then treated with the tested compound and incubated for 3 h. Next, the cells were exposed to H2O2 for 2 h again. The MTT solution (20 μl, 5 mg/ml) was next replaced with the medium and incubated for 4 h. 100 μl of DMSO was added to dissolve the formazan precipitate. Absorbance was then measured at 570 nm using a multi-mode plate reader (Biotek, Winooski, VT). Cell viability is expressed as a percentage relative to the untreated control.

[4] = tested on: SH-SY5Y cells; assay: Cytotoxicity on SH-SY5Y cells (MTT); type: cell-based, human; conditions: for Cytotoxic effect on SH-SY5Y cells: 1 μM; for SH-SY5Y cell viability (% of control): cytotoxic effect, 1 µM compound alone, MTT, mean ± SEM
Method: (§2) Cell culture chemicals were purchased from Lonza, HyClone, or Thermo Scientific. Human neuroblastoma SH-SY5Y cells were maintained in Dulbecco’s modified Eagle’s medium (DMEM) supplemented with 10% FBS, 1% L-glutamine, and 1% antibiotic mix at 37°C in a humidified atmosphere containing 5% CO2. Cell viability was determined using a thiazolyl blue tetrazolium bromide [3-(4,5-dimethyl-2-thiazolyl)-2,5-diphenyl-2H-tetrazolium bromide] (MTT) assay ([Datki et al., 2003]). SH-SY5Y cells were seeded into 384-well plates at 3,000 cells per well and treated with novel compounds at a concentration of 1 μM, 3 h prior to the addition of Aβ1–42 (5 μM). After 24 h of incubation, 5 μl of the MTT reagent (5 mg/ml) was added to each well. 40 μl of DMSO was used to dissolve formazan crystals. Absorbance values were measured at 690 and 570 nm using a BMG Omega Fluorostar microplate reader.

[5] = tested on: SH-SY5Y cells; assay: Neuroprotection against Aβ1-42-induced cytotoxicity in SH-SY5Y cells (MTT); type: cell-based, human; conditions: for SH-SY5Y cell viability (% of control): 1 µM compound before 5 μM Aβ1-42, MTT, mean ± SEM
Method: as §2, with “(MTT) assay ([Datki et al., 2003]).” left out

[6] = target: T3, Aβ1-42 (Homo sapiens, UniProt P05067); assay: Inhibition of self-induced Aβ1-42 aggregation (ThT assay); type: biochemical; conditions: for Inhibition of self-induced Aβ aggregation: Aβ1-42 20 μM, compound 100 μM, after 48 h, ThT, mean ± SEM of three experiments; for Inhibition of Aβ aggregation, fold more effective than the reference drug donepezil: self-induced Aβ aggregation, ThT assay
T3 construct: Amyloid-β protein 1–42 (Sigma A9810) was dissolved; purchased Sigma A9810
Method: Inhibitory properties of the compounds on self-induced and AChE-induced aggregation of amyloid-β protein 1–42 was determined using a thioflavin T (ThT)-based fluorescence assay with slight modifications ([Levine, 1993]). The ThT excitation/emission was measured at 448 nm/490 nm at 48 h using a SpectraMax® Microplate Reader. Amyloid-β protein 1–42 (Sigma A9810) was dissolved in Phosphate Buffer Saline pH 7.4 (PBS, HyClone Thermo Scientific) containing ammonium hydroxide (1%). Aβ1-42 (50 μM) was incubated for 24 h at 37°C for prefibrillation.
(§3) To determine AChE-induced Aβ1-42 aggregation, Aβ1-42 (20 μl) ± human recombinant AChE (0.01 u/ml, Sigma C1682) were added to […] of PBS buffer pH 7.4 including 0.15 M NaCl and 20 μM thioflavin T (ThT). The mixture was incubated at 37°C in the absence and presence of the compounds (100 μM) and the fluorescence intensities were determined. Due to the presence of the tested compounds, inhibition of self- or AChE-induced aggregation percent was determined by the following calculation: [100-((IFi/IFo) × 100)] where IFi and IFo are the fluorescence intensities obtained for Aβ ± AChE in the presence and in the absence of inhibitors.

[7] = target: T4, Aβ1-42 and AChE (human recombinant AChE) (Homo sapiens, UniProt P22303); assay: Inhibition of AChE-induced Aβ1-42 aggregation (ThT assay); type: biochemical; conditions: Aβ1-42 and AChE (0.01 u/ml), compound 100 μM, mean ± SEM of three experiments, read-out: Inhibition of AChE-induced Aβ aggregation
T4 construct: Amyloid-β protein 1–42 (Sigma A9810) was dissolved; purchased Sigma C1682 (AChE); A9810 (Aβ1-42)
Method: Amyloid-β protein 1–42 (Sigma A9810) was dissolved in Phosphate Buffer Saline pH 7.4 (PBS, HyClone Thermo Scientific) containing ammonium hydroxide (1%). Aβ1-42 (50 μM) was incubated for 24 h at 37°C for prefibrillation.
as §3

[8] = ratio of IC50 values vs Donepezil

T4 sequence (P22303 32-614): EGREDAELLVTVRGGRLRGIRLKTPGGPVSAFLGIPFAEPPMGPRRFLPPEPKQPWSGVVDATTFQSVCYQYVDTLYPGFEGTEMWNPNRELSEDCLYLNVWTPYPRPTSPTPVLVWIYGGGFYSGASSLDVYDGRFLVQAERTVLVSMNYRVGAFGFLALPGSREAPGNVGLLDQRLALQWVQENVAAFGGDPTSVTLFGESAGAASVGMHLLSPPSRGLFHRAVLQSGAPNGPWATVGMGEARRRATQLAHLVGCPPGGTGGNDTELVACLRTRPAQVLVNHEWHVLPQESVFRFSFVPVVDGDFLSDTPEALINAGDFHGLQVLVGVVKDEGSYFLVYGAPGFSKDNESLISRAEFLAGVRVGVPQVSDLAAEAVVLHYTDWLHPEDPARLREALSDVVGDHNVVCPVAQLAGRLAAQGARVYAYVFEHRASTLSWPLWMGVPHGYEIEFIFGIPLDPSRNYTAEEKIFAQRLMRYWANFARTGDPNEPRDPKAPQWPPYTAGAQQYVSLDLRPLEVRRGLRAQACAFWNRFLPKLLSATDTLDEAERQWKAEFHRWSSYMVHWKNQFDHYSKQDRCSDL
T1 sequence (O42275 24-633): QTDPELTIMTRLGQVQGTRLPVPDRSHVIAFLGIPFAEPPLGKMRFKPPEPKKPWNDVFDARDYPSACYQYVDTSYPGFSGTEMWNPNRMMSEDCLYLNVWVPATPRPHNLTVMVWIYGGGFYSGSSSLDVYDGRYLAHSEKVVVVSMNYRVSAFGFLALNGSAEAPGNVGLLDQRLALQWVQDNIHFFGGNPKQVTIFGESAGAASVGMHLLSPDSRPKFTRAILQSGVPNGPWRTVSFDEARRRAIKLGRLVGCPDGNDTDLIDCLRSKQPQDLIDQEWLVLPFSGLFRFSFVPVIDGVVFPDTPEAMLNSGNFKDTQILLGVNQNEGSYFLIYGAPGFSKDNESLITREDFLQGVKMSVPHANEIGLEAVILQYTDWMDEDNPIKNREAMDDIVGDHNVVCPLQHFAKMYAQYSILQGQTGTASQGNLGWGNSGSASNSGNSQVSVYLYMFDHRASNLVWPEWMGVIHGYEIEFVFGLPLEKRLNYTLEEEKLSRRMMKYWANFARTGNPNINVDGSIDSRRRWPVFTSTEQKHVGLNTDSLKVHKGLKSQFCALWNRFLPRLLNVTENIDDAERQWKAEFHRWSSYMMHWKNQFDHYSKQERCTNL
T2 sequence (P81908 whole entry): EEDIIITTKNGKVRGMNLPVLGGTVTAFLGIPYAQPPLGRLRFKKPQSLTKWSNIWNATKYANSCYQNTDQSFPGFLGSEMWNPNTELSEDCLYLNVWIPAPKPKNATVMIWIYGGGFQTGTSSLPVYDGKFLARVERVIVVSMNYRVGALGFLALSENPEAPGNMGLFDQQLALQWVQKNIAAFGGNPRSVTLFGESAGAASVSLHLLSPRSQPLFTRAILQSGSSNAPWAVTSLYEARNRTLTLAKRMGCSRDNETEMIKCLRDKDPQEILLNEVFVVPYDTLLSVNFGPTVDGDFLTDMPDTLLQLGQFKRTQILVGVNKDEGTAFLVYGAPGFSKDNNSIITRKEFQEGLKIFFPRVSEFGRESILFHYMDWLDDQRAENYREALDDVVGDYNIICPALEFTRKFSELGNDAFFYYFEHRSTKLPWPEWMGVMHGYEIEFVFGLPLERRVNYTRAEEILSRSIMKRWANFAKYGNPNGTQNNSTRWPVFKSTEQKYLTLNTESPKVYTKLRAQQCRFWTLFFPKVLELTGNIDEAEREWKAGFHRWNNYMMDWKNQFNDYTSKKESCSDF
T3 sequence (P05067 672-713 limits assumed): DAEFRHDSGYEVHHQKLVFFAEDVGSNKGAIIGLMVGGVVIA

## CN(C)c1cc[n+](CCCOc2ccc(-c3cc4cc([N+](=O)[O-])ccc4oc3=O)cc2)cc1.[Br-] [Compound 3t, 4-(Dimethylamino)-1-(3-(4-(6-nitro-2-oxo-2H-chromen-3-yl)phenoxy)propyl)pyridin-1-ium Bromide]
[1]
  IC50: 14 ± 0.9 nM
[2]
  IC50: 9 ± 0.4 nM
[2]; [8]
  BuChE inhibition, times more active than the standard drug Donepezil: 305 times
[3]; 0.1 μM compound
  PC12 cell viability (% of control): 38.3 ± 0.9 % of control
[3]; 1 μM compound
  PC12 cell viability (% of control): 45.3 ± 0.7 % of control
[3]; 5 μM compound
  PC12 cell viability (% of control): 53.6 ± 0.7 % of control
[3]; 10 μM compound
  PC12 cell viability (% of control): 56.3 ± 1.6 % of control
[3]; 20 μM compound
  PC12 cell viability (% of control): 68.2 ± 0.1 % of control
[3]; 50 μM compound
  PC12 cell viability (% of control): 71.8 ± 1.1 % of control
[4]
  Cytotoxic effect on SH-SY5Y cells: no cytotoxic effect
  SH-SY5Y cell viability (% of control): 84.8 ± 6.8 % of control
[5]; 1 μM
  Neuroprotective effect against Aβ1-42-induced cytotoxicity in SH-SY5Y cells: could not protect neuronal cells
[5]
  SH-SY5Y cell viability (% of control): 59.7 ± 2.8 % of control
[6]
  Inhibition of self-induced Aβ aggregation: 66.4 ± 4.7%
  Inhibition of Aβ aggregation, fold more effective than the reference drug donepezil: about 2 fold
[7]
  inhibition at 100 µM: 52.5 ± 4.9%

## O=c1oc2ccccc2cc1-c1ccc(OCCC[n+]2ccccc2)cc1.[Br-] [Compound 3a, 1-(3-(4-(2-Oxo-2H-chromen-3-yl)phenoxy)propyl)pyridinium Bromide]
[1]
  IC50: 4 nM
[2]
  IC50: 84 ± 4 nM
[3]; 0.1 μM compound
  PC12 cell viability (% of control): 39.4 ± 1.7 % of control
[3]; 1 μM compound
  PC12 cell viability (% of control): 42.2 ± 1.3 % of control
[3]; 5 μM compound
  PC12 cell viability (% of control): 53.6 ± 1.4 % of control
[3]; 10 μM compound
  PC12 cell viability (% of control): 55.6 ± 0.1 % of control
[3]; 20 μM compound
  PC12 cell viability (% of control): 57.4 ± 0.4 % of control
[3]; 50 μM compound
  PC12 cell viability (% of control): 58.3 ± 1.4 % of control
[4]
  Cytotoxic effect on SH-SY5Y cells: no cytotoxic effect
  SH-SY5Y cell viability (% of control): 81.2 ± 10.0 % of control
[5]
  SH-SY5Y cell viability (% of control): 79 % of control and 79.1 ± 4.0 % of control
[6]
  Inhibition of self-induced Aβ aggregation: 73.3 ± 15.4%
  Inhibition of Aβ aggregation, fold more effective than the reference drug donepezil: about 2 fold
[7]
  inhibition at 100 µM: 76 ± 1.6%

## O=c1oc2ccc([N+](=O)[O-])cc2cc1-c1ccc(OCCC[n+]2ccccc2)cc1.[Br-] [Compound 3f, 1-(3-(4-(6-Nitro-2-oxo-2H-chromen-3-yl)phenoxy)propyl)pyridinium Bromide]
[1]
  IC50: 2 nM
[1]; [8]
  AChE inhibition, times more active than the standard drug Donepezil: 7 times
[2]
  IC50: 24 ± 5 nM
[3]; 0.1 μM compound
  PC12 cell viability (% of control): 34.1 ± 1.0 % of control
[3]; 1 μM compound
  PC12 cell viability (% of control): 42.8 ± 1.4 % of control
[3]; 5 μM compound
  PC12 cell viability (% of control): 43.1 ± 1.5 % of control
[3]; 10 μM compound
  PC12 cell viability (% of control): 45.0 ± 0.8 % of control
[3]; 20 μM compound
  PC12 cell viability (% of control): 48.3 ± 0.4 % of control
[3]; 50 μM compound
  PC12 cell viability (% of control): 50.8 ± 0.6 % of control
[4]
  Cytotoxic effect on SH-SY5Y cells: no cytotoxic effect
  SH-SY5Y cell viability (% of control): 83.6 ± 3.4 % of control
[5]
  SH-SY5Y cell viability (% of control): 89 % of control and 89.0 ± 9.8 % of control
[6]
  Inhibition of self-induced Aβ aggregation: 84.7 ± 1.6%
  Inhibition of Aβ aggregation, fold more effective than the reference drug donepezil: about 2 fold
[7]
  inhibition at 100 µM: 87.2 ± 5.7%

From publication PMC9280334 (Frontiers in Chemistry, 2022)
